The record followed here is PubChem BioAssay AID200 (DTP/NCI, 2004).

Each structure is given as a SMILES string. Values joined by “and” are separate entries in the source; they are usually repeats but may differ in a detail not shown here. Equal values may be shown once. Toxic doses and inconclusive results are not listed.

This assay concerns B6C3F1 mice, B16 melanoma ip, median survival T/C. As to the kind of experiment: NCI In Vivo Anticancer Drug Screen. Data for tumor model B16 Melanoma (intraperitoneal) in B6C3F1 mice. The conditions noted are these: endpoint: median survival time, higher = longer survival. The gist of the method:
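Antitumor effect was judged in mice with transplanted tumors by dividing the treated group's survival measure by that of vehicle controls.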

[1] abbreviates: dose: 12.5 mg/kg/injection, schedule: Q01DX009 (ip), vehicle: saline.
[2] abbreviates: dose: 25.0 mg/kg/injection, schedule: Q01DX009 (ip), vehicle: saline.
The mark [3] stands for this setting: dose: 50.0 mg/kg/injection, schedule: Q01DX009 (ip), vehicle: saline.
Setting [4] is: dose: 100.0 mg/kg/injection, schedule: Q01DX009 (ip), vehicle: saline.
[5] abbreviates: dose: 200.0 mg/kg/injection, schedule: Q01DX009 (ip), vehicle: saline.
The mark [6] stands for this setting: dose: 25.0 mg/kg/injection, schedule: Q01DX009 (ip), vehicle: water.
Setting [7] is: dose: 50.0 mg/kg/injection, schedule: Q01DX009 (ip), vehicle: water.
Where [8] appears, read: dose: 100.0 mg/kg/injection, schedule: Q01DX009 (ip), vehicle: water.
Setting [9] is: dose: 200.0 mg/kg/injection, schedule: Q01DX009 (ip), vehicle: water.
[10] abbreviates: dose: 3.12 mg/kg/injection, schedule: Q01DX009 (ip), vehicle: saline.
The mark [11] stands for this setting: dose: 6.25 mg/kg/injection, schedule: Q01DX009 (ip), vehicle: saline.

For the molecule `Cc1c(N)nc([C@H](CC(N)=O)NC[C@H](N)C(N)=O)nc1C(=O)N[C@H](C(=O)N[C@H](C)[C@@H](O)CC(=O)N[C@H](C(=O)NC(O[C@@H]1O[C@@H](C)[C@@H](N)[C@@H](O)[C@H]1O)C(O)c1nc(-c2nc(C(=O)NCCCCN)cs2)cs1)[C@@H](C)O)[C@@H](O[C@@H]1O[C@@H](CO)[C@@H](O)[C@H](O)[C@@H]1O[C@H]1O[C@H](CO)[C@@H](O)[C@H](OC(N)=O)[C@@H]1O)c1c[nH]cn1` (some centres not stated), the T/C (dose: 0.25 mg/kg/injection, schedule: Q01DX009 (ip), vehicle: saline) was 104 % of control; the T/C (dose: 0.4 mg/kg/injection, schedule: Q01DX009 (ip), vehicle: saline) was 116 % of control and 94 % of control; the T/C (dose: 0.5 mg/kg/injection, schedule: Q01DX009 (ip), vehicle: saline) was 107 % of control; the T/C (dose: 0.8 mg/kg/injection, schedule: Q01DX009 (ip), vehicle: saline) is 94 % of control; the T/C (dose: 1.0 mg/kg/injection, schedule: Q01DX009 (ip), vehicle: saline) was 115 % of control; the T/C (dose: 1.6 mg/kg/injection, schedule: Q01DX009 (ip), vehicle: saline) is 98 % of control. In addition, the T/C is, setting by setting: (dose: 2.0 mg/kg/injection, schedule: Q01DX009 (ip), vehicle: saline) 114 % of control; (dose: 3.2 mg/kg/injection, schedule: Q01DX009 (ip), vehicle: saline) 101 % of control; (dose: 4.0 mg/kg/injection, schedule: Q01DX009 (ip), vehicle: saline) 121 % of control; (dose: 6.4 mg/kg/injection, schedule: Q01DX009 (ip), vehicle: saline) 97 % of control.
`CCCCCC#CC1OC12CCCCC2` (configuration not stated): the T/C is, setting by setting: (dose: 12.5 mg/kg/injection, schedule: Q01DX009 (ip), vehicle: saline with Tween-80) 100 % of control; under setting [1], 99 % of control; (dose: 25.0 mg/kg/injection, schedule: Q01DX009 (ip), vehicle: saline with Tween-80) 100 % of control; under setting [2], 105 % of control; (dose: 50.0 mg/kg/injection, schedule: Q01DX009 (ip), vehicle: saline with Tween-80) 108 % of control; under setting [3], 104 % of control. For the same molecule, the T/C is 100 % of control (dose: 100.0 mg/kg/injection, schedule: Q01DX009 (ip), vehicle: saline with Tween-80); 97 % of control under setting [4]; 93 % of control (dose: 200.0 mg/kg/injection, schedule: Q01DX009 (ip), vehicle: saline with Tween-80); 95 % of control under setting [5].
Consider `c1cc[c]([Sn]([NH]c2ncnc3[nH]cnc23)([NH]c2ncnc3[nH]cnc23)[c]2ccccc2)cc1`, for which the T/C was 105 % of control under setting [1]; 100 % of control under setting [2]; 100 % of control under setting [3]; 106 % of control under setting [4]; 116 % of control under setting [5].
In the case of `Nc1n[nH]c2ccccc12`, the T/C (dose: 25.0 mg/kg/injection, schedule: Q01DX009 (ip), vehicle: acid diluted with saline) was 101 % of control; the T/C (dose: 50.0 mg/kg/injection, schedule: Q01DX009 (ip), vehicle: acid diluted with saline) is 102 % of control; the T/C (dose: 100.0 mg/kg/injection, schedule: Q01DX009 (ip), vehicle: acid diluted with saline) was 95 % of control; the T/C (dose: 200.0 mg/kg/injection, schedule: Q01DX009 (ip), vehicle: acid diluted with saline) is 88 % of control.
Take `Cc1noc(N)c1N`: the T/C is 94 % of control (dose: 12.0 mg/kg/injection, schedule: Q01DX009 (ip), vehicle: water); 100 % of control under setting [6]; 106 % of control under setting [7]; 100 % of control under setting [8]; 96 % of control under setting [9]; 90 % of control (dose: 400.0 mg/kg/injection, schedule: Q01DX009 (ip), vehicle: water).
Consider `N=C(N)CCCCCCCCC(=N)N`, for which the T/C is, setting by setting: (dose: 0.78 mg/kg/injection, schedule: Q01DX009 (ip), vehicle: saline) 99 % of control and 102 % of control; (dose: 1.56 mg/kg/injection, schedule: Q01DX009 (ip), vehicle: saline) 108 % of control and 112 % of control; under setting [10], 110 % of control; (dose: 3.13 mg/kg/injection, schedule: Q01DX009 (ip), vehicle: saline) 102 % of control; under setting [11], 118 % of control and 106 % of control; under setting [1], 112 % of control.
For the molecule `CSc1cc(=O)n2c3ccccc3c3ccnc1c32`, the T/C runs as follows: (dose: 0.62 mg/kg/injection, schedule: Q01DX009 (ip), vehicle: saline with Tween-80) 96 % of control; (dose: 1.25 mg/kg/injection, schedule: Q01DX009 (ip), vehicle: saline with Tween-80) 101 % of control; (dose: 2.5 mg/kg/injection, schedule: Q01DX009 (ip), vehicle: saline with Tween-80) 105 % of control; (dose: 5.0 mg/kg/injection, schedule: Q01DX009 (ip), vehicle: saline with Tween-80) 109 % of control; (dose: 10.0 mg/kg/injection, schedule: Q01DX009 (ip), vehicle: saline with Tween-80) 114 % of control.
`CC(C)[C@](O)(C(=O)OCC1=CCN2CC[C@@H](O)[C@@H]12)[C@H](C)O`: the T/C runs as follows: under setting [6], 107 % of control; under setting [7], 111 % of control and 116 % of control; under setting [8], 111 % of control; under setting [9], 117 % of control.
Regarding `COc1cccc(Sc2ccc([N+](=O)[O-])c3no[n+]([O-])c23)c1`, the T/C reads like this: (dose: 1.85 mg/kg/injection, schedule: Q01DX009 (ip), vehicle: saline with Tween-80) 111 % of control and 93 % of control; (dose: 3.75 mg/kg/injection, schedule: Q01DX009 (ip), vehicle: saline with Tween-80) 94 % of control and 101 % of control; (dose: 7.5 mg/kg/injection, schedule: Q01DX009 (ip), vehicle: saline with Tween-80) 92 % of control and 99 % of control; (dose: 15.0 mg/kg/injection, schedule: Q01DX009 (ip), vehicle: saline with Tween-80) 88 % of control and 91 % of control; (dose: 30.0 mg/kg/injection, schedule: Q01DX009 (ip), vehicle: saline with Tween-80) 88 % of control and 89 % of control and 95 % of control; (dose: 60.0 mg/kg/injection, schedule: Q01DX009 (ip), vehicle: saline with Tween-80) 91 % of control.
As to `C(=N/NC1=NCCN1)/c1c2ccccc2c(/C=N\NC2=NCCN2)c2ccccc12`, the T/C by setting is: under setting [10], 183 % of control; under setting [11], 189 % of control; under setting [1], 179 % of control.
Regarding `CC(O)CCC(=O)c1ccoc1` (configuration not stated), the T/C is 97 % of control (dose: 0.62 mg/kg/injection, schedule: Q03HX027 (ip), vehicle: saline); 113 % of control (dose: 1.25 mg/kg/injection, schedule: Q03HX027 (ip), vehicle: saline); 105 % of control (dose: 2.5 mg/kg/injection, schedule: Q03HX027 (ip), vehicle: saline); 105 % of control (dose: 5.0 mg/kg/injection, schedule: Q01DX009 (ip), vehicle: saline); 114 % of control (dose: 5.0 mg/kg/injection, schedule: Q03HX027 (ip), vehicle: saline); 93 % of control (dose: 10.0 mg/kg/injection, schedule: Q01DX009 (ip), vehicle: saline). In addition, the T/C runs as follows: (dose: 10.0 mg/kg/injection, schedule: Q03HX027 (ip), vehicle: saline) 105 % of control; (dose: 20.0 mg/kg/injection, schedule: Q01DX009 (ip), vehicle: saline) 98 % of control.
